Experimental data taken from ChEMBL document CHEMBL1201862, “PubChem BioAssay data set” (2004).
Active and inactive are the calls of the source.

Legend:
Coagulation factor XII = target: T1, Coagulation factor XII (Homo sapiens, UniProt P00748); assay type: functional;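 also: activated factor XIIa alpha cleaving a fluorogenic AMC peptide substrate; inhibitor potency from loss of enzyme activity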
T1 sequence (P00748 whole entry): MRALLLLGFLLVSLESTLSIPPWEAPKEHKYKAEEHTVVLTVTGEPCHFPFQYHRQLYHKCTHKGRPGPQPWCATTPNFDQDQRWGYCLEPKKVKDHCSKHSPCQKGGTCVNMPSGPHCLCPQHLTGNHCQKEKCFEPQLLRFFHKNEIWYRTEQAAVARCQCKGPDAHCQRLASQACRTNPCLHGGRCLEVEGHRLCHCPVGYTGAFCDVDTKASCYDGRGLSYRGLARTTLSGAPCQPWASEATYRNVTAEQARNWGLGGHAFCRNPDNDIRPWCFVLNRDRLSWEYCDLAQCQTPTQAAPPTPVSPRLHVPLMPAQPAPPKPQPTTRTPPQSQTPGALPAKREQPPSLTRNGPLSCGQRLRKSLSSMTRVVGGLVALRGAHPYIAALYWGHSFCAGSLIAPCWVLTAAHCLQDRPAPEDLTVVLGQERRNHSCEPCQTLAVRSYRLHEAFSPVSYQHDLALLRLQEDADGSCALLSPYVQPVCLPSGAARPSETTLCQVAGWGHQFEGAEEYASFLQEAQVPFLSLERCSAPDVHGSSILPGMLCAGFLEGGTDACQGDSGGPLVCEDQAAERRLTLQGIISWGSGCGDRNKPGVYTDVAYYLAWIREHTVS

Cytochrome P450 2C19 = Cytochrome P450 2C19 (Homo sapiens, UniProt P33261); test: Cytochrome panel assay with activity outcomes. Panel member name: p450-cyp2c19 Compounds with AC50 equal or less than 10 uM are considered active; assay type: functional; conditions: read-out: AC50
Sequence of Cytochrome P450 2C19 (P33261 whole entry): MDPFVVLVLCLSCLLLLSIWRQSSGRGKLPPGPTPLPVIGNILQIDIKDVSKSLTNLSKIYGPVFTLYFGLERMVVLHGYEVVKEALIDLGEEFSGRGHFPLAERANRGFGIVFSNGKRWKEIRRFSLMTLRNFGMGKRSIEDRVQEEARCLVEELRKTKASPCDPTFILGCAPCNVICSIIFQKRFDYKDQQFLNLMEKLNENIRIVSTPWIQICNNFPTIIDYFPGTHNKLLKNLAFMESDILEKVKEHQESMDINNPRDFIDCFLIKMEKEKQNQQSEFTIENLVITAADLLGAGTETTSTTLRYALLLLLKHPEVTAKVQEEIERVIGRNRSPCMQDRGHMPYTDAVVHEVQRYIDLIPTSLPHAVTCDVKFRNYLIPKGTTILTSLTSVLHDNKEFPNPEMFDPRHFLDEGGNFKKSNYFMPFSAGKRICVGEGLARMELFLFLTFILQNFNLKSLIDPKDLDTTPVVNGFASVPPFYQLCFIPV

[1] = target: T2, Heat shock factor protein 1 (Mus musculus, UniProt P38532); test: decrease of HSF1-responsive luciferase luminescence – cell-based, NIH3T3, dose retest, confirmation (AID 2382); assay type: functional;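 also: NIH3T3 fibroblasts with HSF1-driven luciferase reporter stressed by proteasome inhibitor MG132; luminescence from HSF1-driven luciferase expression after 8 hours of MG132 stress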
T2 sequence (P38532 whole entry): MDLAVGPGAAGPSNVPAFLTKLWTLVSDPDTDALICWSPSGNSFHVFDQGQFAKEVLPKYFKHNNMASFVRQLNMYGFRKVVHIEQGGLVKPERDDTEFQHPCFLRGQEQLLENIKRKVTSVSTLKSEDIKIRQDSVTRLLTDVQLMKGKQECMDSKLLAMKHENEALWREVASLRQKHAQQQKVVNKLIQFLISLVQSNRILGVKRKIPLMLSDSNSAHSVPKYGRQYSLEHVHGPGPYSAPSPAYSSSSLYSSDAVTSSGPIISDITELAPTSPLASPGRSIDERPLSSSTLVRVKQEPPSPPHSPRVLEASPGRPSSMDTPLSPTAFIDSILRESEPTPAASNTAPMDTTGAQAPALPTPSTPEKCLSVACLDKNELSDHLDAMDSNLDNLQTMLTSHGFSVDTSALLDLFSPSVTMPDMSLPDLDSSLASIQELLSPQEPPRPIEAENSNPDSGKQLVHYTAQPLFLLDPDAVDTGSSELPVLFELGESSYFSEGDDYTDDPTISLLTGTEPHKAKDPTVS

HT-1080 = test: HT1080 cell viability loss – fluorescence readout (AID 620); assay type: functional, cell-based; conditions: Homo sapiens
[2] = target: Luciferin 4-monooxygenase (Photinus pyralis, UniProt P08659); test: Counter Screen for Luciferase-based Assay Positives. [Related pubchem assays: 620, 618, 411 ]
Sequence of Luciferin 4-monooxygenase (P08659 whole entry, the tested form may be a part): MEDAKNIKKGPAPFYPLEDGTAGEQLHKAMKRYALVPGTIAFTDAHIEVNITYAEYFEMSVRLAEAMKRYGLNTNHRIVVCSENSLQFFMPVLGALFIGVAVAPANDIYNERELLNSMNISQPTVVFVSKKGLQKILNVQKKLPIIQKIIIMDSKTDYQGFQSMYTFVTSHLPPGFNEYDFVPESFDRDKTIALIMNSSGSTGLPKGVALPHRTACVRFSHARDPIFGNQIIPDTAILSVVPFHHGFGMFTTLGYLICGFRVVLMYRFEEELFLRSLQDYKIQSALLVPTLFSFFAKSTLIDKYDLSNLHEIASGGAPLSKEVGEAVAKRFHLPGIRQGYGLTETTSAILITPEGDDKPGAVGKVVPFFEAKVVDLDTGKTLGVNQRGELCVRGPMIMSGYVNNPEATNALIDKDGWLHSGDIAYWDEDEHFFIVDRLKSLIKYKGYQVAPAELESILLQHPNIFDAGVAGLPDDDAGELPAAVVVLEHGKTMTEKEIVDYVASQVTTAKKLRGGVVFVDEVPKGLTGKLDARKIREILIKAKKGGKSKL

[3] = CCR5-tropic HIV-1 fusion blockers – cell-based, CCR5-tropic Env, dose response (AID 2279); assay type: functional
[4] = A cytotoxicity screen of small molecule inhibitors of the PhoP region in Salmonella typhi identified in the primary screen. [Related pubchem assays: 1850, 1864, 1985 ]; assay type: functional
[5] = target: Peroxisome proliferator-activated receptor gamma/Nuclear receptor coactivator 3 (Homo sapiens, UniProt P37231); test: (§1) TR-FRET dose response biochemical High Throughput Screening assay for agonists of the steroid receptor coactivator 3 (SRC-3) recruitment by the peroxisome proliferator-activated receptor gamma (PPAR gamma): non-selective agonists. [Related pubchem assays: 1301 (Confirmation screen.), 1048 (Primary screen.)]; assay type: functional
Sequence of Peroxisome proliferator-activated receptor gamma/Nuclear receptor coactivator 3 (P37231 whole entry): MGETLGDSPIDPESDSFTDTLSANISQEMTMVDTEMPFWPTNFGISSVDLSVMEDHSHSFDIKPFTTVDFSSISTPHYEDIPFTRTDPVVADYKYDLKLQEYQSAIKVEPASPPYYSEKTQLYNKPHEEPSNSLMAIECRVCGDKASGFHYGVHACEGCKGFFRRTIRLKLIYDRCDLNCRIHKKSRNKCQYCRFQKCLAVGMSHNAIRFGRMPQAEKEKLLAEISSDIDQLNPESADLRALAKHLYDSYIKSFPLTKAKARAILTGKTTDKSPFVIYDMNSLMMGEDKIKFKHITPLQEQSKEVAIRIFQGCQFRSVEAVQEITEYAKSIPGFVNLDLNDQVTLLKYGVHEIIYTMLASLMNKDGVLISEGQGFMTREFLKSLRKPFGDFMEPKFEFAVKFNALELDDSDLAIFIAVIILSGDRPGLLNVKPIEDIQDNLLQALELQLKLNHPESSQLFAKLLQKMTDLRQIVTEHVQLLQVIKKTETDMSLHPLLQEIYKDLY
Sequence of Peroxisome proliferator-activated receptor gamma/Nuclear receptor coactivator 3 (Q9Y6Q9 whole entry, further chain): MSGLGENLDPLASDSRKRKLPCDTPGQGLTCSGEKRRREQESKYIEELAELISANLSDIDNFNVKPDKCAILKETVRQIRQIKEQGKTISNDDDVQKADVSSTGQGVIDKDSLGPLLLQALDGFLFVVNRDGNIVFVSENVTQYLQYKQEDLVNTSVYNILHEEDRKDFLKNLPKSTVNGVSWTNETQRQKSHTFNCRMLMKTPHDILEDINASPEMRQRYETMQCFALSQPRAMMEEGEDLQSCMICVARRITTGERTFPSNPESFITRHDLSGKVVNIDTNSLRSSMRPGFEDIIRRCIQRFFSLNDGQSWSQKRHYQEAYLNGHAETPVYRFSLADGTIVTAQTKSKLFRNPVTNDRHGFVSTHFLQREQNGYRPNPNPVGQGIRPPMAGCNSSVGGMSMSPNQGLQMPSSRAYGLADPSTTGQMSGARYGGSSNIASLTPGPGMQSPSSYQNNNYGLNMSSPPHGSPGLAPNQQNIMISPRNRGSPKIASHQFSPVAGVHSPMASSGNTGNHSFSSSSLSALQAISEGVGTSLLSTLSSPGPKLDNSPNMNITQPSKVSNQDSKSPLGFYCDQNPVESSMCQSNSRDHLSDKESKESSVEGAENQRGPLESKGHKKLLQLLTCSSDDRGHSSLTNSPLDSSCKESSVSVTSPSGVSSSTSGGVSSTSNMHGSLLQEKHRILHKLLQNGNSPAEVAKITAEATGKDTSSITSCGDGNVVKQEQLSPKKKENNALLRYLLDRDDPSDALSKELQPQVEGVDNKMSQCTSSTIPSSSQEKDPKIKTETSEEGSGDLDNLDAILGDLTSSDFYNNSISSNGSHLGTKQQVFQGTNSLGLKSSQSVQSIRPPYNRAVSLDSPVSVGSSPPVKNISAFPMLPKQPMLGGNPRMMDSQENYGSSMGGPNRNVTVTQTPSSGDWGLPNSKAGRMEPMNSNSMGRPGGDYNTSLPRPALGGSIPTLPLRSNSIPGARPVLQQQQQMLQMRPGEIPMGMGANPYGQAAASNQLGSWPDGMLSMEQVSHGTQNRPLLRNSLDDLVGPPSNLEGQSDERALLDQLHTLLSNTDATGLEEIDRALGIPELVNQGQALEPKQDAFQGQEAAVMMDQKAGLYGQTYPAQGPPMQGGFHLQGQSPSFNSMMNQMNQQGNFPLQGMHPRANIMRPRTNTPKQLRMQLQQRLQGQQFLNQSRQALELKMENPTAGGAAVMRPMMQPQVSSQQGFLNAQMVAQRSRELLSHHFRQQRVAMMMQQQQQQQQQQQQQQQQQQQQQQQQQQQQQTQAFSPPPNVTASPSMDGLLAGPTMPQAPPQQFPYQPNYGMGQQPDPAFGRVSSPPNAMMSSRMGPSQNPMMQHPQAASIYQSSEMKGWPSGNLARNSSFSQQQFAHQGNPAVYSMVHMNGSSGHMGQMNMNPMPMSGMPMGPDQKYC

[6] = target: Peroxisome proliferator-activated receptor gamma/Nuclear receptor coactivator 1 (Homo sapiens, UniProt P37231); test: as §1, with “1 (SRC-1)” for “3 (SRC-3)”, “assays (depositor defined):AID1300, AID1808, AID504735, AID631]” for “assays: 1301 (Confirmation screen.), 1048 (Primary screen.)]”; assay type: protein assay
[7] = target: Peroxisome proliferator-activated receptor gamma/Nuclear receptor coactivator 2 (Homo sapiens, UniProt P37231); test: TR-FRET dose response biochemical High Throughput Screening assay for agonists of the steroid receptor coactivator 2 (SRC-2) recruitment by the peroxisome proliferator-activated receptor gamma (PPAR gamma): non-selective agonists. [Related pubchem assays: 1297, 1032 ]; assay type: functional
Sequence of Peroxisome proliferator-activated receptor gamma/Nuclear receptor coactivator 2 (P37231 whole entry): as the sequence (P37231 whole entry) above
Sequence of Peroxisome proliferator-activated receptor gamma/Nuclear receptor coactivator 2 (Q15596 whole entry, further chain): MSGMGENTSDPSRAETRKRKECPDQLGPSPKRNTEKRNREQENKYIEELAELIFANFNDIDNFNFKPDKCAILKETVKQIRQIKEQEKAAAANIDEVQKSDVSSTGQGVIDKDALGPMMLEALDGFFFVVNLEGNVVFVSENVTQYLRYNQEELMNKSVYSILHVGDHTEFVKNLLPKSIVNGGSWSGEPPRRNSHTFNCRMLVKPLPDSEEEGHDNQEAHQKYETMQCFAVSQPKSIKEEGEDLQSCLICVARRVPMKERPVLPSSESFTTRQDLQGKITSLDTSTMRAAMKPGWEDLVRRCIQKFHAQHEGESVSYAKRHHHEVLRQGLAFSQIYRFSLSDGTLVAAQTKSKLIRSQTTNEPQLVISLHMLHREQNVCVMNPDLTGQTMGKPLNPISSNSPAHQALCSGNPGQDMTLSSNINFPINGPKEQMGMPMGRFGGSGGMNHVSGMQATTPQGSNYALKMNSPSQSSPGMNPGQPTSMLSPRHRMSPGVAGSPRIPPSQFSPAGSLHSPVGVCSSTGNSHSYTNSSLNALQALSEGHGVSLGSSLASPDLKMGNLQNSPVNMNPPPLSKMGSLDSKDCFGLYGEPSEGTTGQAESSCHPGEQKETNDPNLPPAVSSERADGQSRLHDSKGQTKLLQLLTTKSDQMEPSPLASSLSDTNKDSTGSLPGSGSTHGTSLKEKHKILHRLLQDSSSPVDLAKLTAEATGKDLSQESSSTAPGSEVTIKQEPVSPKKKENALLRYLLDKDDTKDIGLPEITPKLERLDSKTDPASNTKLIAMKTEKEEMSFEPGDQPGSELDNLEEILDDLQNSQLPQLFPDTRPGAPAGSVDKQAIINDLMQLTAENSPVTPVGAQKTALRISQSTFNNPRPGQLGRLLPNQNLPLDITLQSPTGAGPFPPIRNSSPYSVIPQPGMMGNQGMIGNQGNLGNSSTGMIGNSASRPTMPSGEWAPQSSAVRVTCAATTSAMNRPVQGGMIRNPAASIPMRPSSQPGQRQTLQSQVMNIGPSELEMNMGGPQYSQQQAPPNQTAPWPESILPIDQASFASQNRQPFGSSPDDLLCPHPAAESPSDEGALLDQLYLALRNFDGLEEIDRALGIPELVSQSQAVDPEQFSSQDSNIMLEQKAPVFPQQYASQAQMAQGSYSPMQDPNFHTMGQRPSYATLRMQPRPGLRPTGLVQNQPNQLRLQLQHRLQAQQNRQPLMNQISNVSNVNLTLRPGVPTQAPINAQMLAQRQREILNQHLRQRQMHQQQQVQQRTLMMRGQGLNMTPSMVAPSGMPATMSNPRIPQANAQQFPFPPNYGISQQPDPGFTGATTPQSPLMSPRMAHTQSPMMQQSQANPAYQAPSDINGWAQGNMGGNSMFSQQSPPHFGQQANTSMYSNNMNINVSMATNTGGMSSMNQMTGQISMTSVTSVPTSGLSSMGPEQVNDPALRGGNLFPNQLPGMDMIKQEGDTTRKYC

COc1cccc(NC(=O)Nc2ccccc2SC)c1
IC50 (Coagulation factor XII): > 50 µM (inactive)

CCOC(=O)c1sc2nc3c(cc2c1N)COC(C(C)C)C3 (configuration not stated)
AC50 (Cytochrome P450 2C19): 22.4 µM (inconclusive) | EC50 [1]: > 195 µM (not active) | EC50 (HT-1080): > 50 µM (not active) | EC50 [2]: 2.84 µM (active)

COc1ccc(-c2nn(-c3ccccc3)cc2/C=C2/SC(=S)N(CCCC(=O)O)C2=O)c(C)c1
IC50 [3]: 45 µM (active)

COc1cccc(N2CCN(C(S)=NCc3ccco3)CC2)c1
EC50 [4]: > 50 µM (active)

COc1cccc(Nc2nc(-c3sc(NC(=O)c4ccccc4)nc3C)cs2)c1
EC50 [5]: > 79.4 µM (not active) | EC50 [6]: 14.8 µM (inactive) | EC50 [7]: 27.9 µM (not active)

Cc1occc1C(=O)N/N=C/c1cccs1
EC50 [4]: > 50 µM (active)

O=C(Nc1ccc2nc(S)sc2c1)Nc1ccccc1F
EC50 [4]: > 50 µM (active)
